Target: T1, human leukocyte elastase (Homo sapiens, UniProt P08246)
T1 sequence (P08246 30-267): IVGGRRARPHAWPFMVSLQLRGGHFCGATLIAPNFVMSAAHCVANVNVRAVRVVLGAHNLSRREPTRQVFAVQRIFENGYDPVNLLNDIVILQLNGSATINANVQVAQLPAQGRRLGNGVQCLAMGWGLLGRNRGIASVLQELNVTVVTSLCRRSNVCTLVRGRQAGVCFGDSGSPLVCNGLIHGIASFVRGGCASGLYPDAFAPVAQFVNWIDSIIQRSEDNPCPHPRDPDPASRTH
Experiment: human leukocyte elastase inhibition, progress curves with MeOSuc-Ala-Ala-Pro-Val-pNA
Assay type: biochemical
Settings: HLE; substrate MeOSuc-Ala-Ala-Pro-Val-pNA; pH 7.8, 25° C.; 410 nM absorbance; read-out: inhibition constant Ki
Description: The test compound (inhibitor) is dissolved in DMSO in a vial to produce an inhibitor stock solution which has a concentration in the range of 200-1000 μM. The inhibitor stock solution is diluted (1:4, 1:16 and 1:64) into assay vials (vials 1, 2 and 3 respectively) containing 2.4 mL of buffer solution (50 mM N-[2-hydroxyethyl]piperazine-N'-[2-ethanesulfonic acid]/NaOH, 500 mM NaCl, pH 7.8 at 25° C.) and DMSO is added so that the total volume in each vial is 3.2 mL. 70 μL, 50 μL, 35 μL and 25 μL of inhibitor from assay vial 1 is placed into the first four wells of a 96-well microtiter plate and each well is made up to 90 μL total volume with the addition of a 25% DMSO/buffer solution. The inhibitor from assay vials 2 and 3 is processed in a similar manner and placed in wells 5-12 respectively to afford a total of 12 different inhibitor concentrations. Four wells (wells 13-16) containing 90 μL of the 25% DMSO/buffer solution but no inhibitor are also run simultaneously with the inhibited wells as a control. 150 μL of substrate solution (prepared by the addition of 500 μL of the human leukocyte elastase (HLE) substrate MeOSuc-Ala-Ala-Pro-Val-pNA (18.7 mM in DMSO) to 19.5 mL of buffer solution) is then added simultaneously into each of the 16 wells and the solution in each well was thoroughly mixed.
The 96-well microtiter plate is placed into a Microplate Reader #89815A spectrophotometer and 110 μL of the enzyme solution (prepared as follows: a mixture of 20 mL of buffer solution and 20 mg of bovine serum albumen is gently vortexed in a scintillation vial and 5 μL HLE stock solution (1 mg/mL dissolved in deionized water) is added) is added simultaneously to each of the 16 wells. Each of the solutions in the wells is thoroughly mixed and then the time-dependent absorbance data is collected at an absorbance of 410 nm until the assay is complete. It should be noted that although this assay method can be done manually, it is preferred to perform the assay robotically using a Hewlett Packard MicroAssay System Robot.
A plot of the absorbance versus time data thus obtained affords progress curves the final slope of which is equal to the final steady-state velocities (VF). Using the program ENZFITTER (Elsevier software), the progress curves for the four control assays ([I]=0) are fit by linear regression to yield the enzyme reaction velocity values in the absences of inhibitor (Vo) which are averaged to produce a single fixed value. The inhibition constant Ki (nM) is then obtained from a plot of [formula] which affords a linear plot wherein: [formula] and [S] is the concentration of the substrate and Km is the Michaelis constant.
Table V summarizes the results obtained from the testing of representative compounds of the invention for human leukocyte elastase inhibitory activity.

Ki | Structure (SMILES)
3000 nM | CC(C)C1NS(=O)(=O)N(CSc2nnnn2-c2ccccc2)C1=O (racemic) [2 (f), 2-(1-phenyl-1H-tetrazol-5-yl-thiomethyl)-4-isopropyl-1,2,5-thizdizolidin-3-one 1,1-dioxide]
180 nM | CCCC1NS(=O)(=O)N(CSc2nnnn2-c2ccccc2)C1=O (centres unmarked) [1 (f), 2-(1-phenyl-1H-tetrazol-5-yl-thiomethyl)-4-propyl-1,2,5-thiadiazolidin-3-one 1,1-dioxide]
3.6 nM | CCCC1C(=O)N(CSc2nnnn2-c2ccccc2)S(=O)(=O)N1C (centres unmarked) [3 (h), 2-(1-phenyl-1H-tetrazol-5-yl-thiomethyl)-4-propyl-5-methyl-1,2,5-thiadiazolidin-3-one 1,1-dioxide]
200 nM | CC(C)C1C(=O)N(CSc2nnnn2-c2ccccc2)S(=O)(=O)N1C (centres unmarked) [4 (f), 2-(1-phenyl-1H-tetrazol-5-yl-thiomethyl)-4-isopropyl-5-methyl-1,2,5-thiadiazolidin-3-one 1,1-dioxide]
11 nM | CCCC1C(=O)N(CSc2nnnn2-c2ccccc2)S(=O)(=O)N1CC (centres unmarked) [5 (i), 2-(1-phenyl-1H-tetrazol-5-yl-thiomethyl)-4-propyl-5-ethyl-1,2,5-thiadiazolidin-3-one 1,1-dioxide]
2.4 nM | CC(C)CCC1C(=O)N(COc2cc(C(F)(F)F)nn2-c2ccccc2)S(=O)(=O)N1C (centres unmarked) [6 (j), 2-(1-phenyl-3-trifluoromethyl-pyrazol-5-yloxymethyl)-4-(3-methylbutyl)-5-methyl-1,2,5-thiadiazolidin-3-one 1,1-dioxide]
85 nM | O=C1C2CCCCN2S(=O)(=O)N1CSc1nnnn1-c1ccccc1 (centres unmarked) [18 (f), 2-(1-phenyl-1H-tetrazol-5-yl-thiomethyl)-1,2,5-thiadiazolo [2,3-a]3,3a,4,5,6,7-hexahydropyridine-3-one 1,1-dioxide]
540 nM | O=C1C2CCCN2S(=O)(=O)N1CSc1nnnn1-c1ccccc1 (centres unmarked) [19 (f), 2-(1-phenyl-1H-tetrazol-5-yl-thiomethyl)tetrahydropyrrolo[1,2-b]-1,2,5-thiadiazol-3 (2H)-one 1,1-dioxide]
